Source: patent US6362369B1, “Phthalic acid diamide derivatives fluorine-containing aniline compounds as starting material, agricultural and horticultural insecticides, and a method for application of the insecticides” (Nihon Nohyaku Co., Ltd., priority 1997, dated 2002)

Assays:
Format in all cases: in vivo
[1] = tested on: rice leafroller (Cnaphalocrocis medinalis); assay: Insecticidal effect on rice leafroller (Test Example 3); settings: 500 ppm, 25° C., humidity 70%; for Insecticidal effect, Test Example 3: rice lamina immersed; for Insecticidal effect, Test Example 3 / Insecticidal effect on rice leafroller (Test Example 3), judged grade: four days after inoculation; for Insecticidal effect (Test Example 3), judged from mortality / Insecticidal effect on rice leafroller (Test Example 3), judged grade: rice lamina dip; for Insecticidal effect (Test Example 3), judged from mortality: 4 days after inoculation; for Insecticidal effect on rice leafroller (Test Example 3), judged grade: third-instar larvae
Outline: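 Insecticidal effect is judged by a predefined criterion from dead/alive counts four days after infesting air-dried lamina with third-instar larvae, kept on moistened filter paper at 25° C, 70% humidity.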

[2] = tested on: diamondback moth (Plutella xylostella); assay: Insecticidal effect on diamondback moth (Test Example 1); settings: for Insecticidal effect, Test Example 1 / Insecticidal effect (Test Example 1), judged from mortality: diamondback moth; for Insecticidal effect (Test Example 1), judged from mortality: judged by the criterion of Test Example 1; for Insecticidal effect on diamondback moth (Test Example 1), judged grade: mortality judged according to the criterion shown in Test Example 1
Outline: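 Triplicate groups of 10 insects: eggs laid on Chinese cabbage seedling by adults, seedling immersed then air-dried, kept at 25° C. Day-6 hatch counts gave mortality, rated by criterion.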

[3] = tested on: common cutworm (Spodoptera Litura); assay: Insecticidal effect on common cutworm (Test Example 2); settings: 500 ppm, 25° C.; for Insecticidal effect, Test Example 2: cabbage leaf immersed; for Insecticidal effect, Test Example 2 / Insecticidal effect on common cutworm (Test Example 2), judged grade: eight days after inoculation; for Insecticidal effect (Test Example 2), judged from mortality / Insecticidal effect on common cutworm (Test Example 2), judged grade: cabbage leaf dip; for Insecticidal effect (Test Example 2), judged from mortality: 8 days after inoculation; for Insecticidal effect on common cutworm (Test Example 2), judged grade: second-instar larvae
Outline: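 Second-instar larvae placed in 9 cm Petri dishes with air-dried treated material, held at 25 °C. Dead and live insects counted 8 days after inoculation; mortality calculated and scored against a set criterion. Triplicate groups of 10 insects.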

[4] = third-instar larvae of rice leafroller
[5] = judged by the mortality criterion of Test Example 1
[6] = second-instar larvae of common cutworm
[7] = rice leafroller third-instar larvae
[8] = mortality judged by criterion of Test Example 1
[9] = common cutworm second-instar larvae

Compound	Insecticidal effect, Test Example 3 [1, 4]	Insecticidal effect, Test Example 1 [2, 5]	Insecticidal effect, Test Example 2 [3, 6]	Insecticidal effect, Test Example 3 [1, 7]	Insecticidal effect, Test Example 1 [2, 8]	Insecticidal effect, Test Example 2 [3, 9]	other results
CC(C)NC(=O)c1c(I)cccc1C(=O)Nc1ccc(Br)cc1 [compound 346]	A (100)	A (100)	C (89-80)	–	–	–	–
Cc1cc(OC(F)F)ccc1NC(=O)c1ccccc1C(=O)NC(C)(C)C [compound 1018]	–	–	–	A (100)	A (100)	D (79-50)	–
CCc1cc(C(F)(F)C(F)(F)F)ccc1NC(=O)c1cccc(Cl)c1C(=O)N(CC)CC [compound 1543]	–	–	–	–	–	–	Insecticidal effect (Test Example 3), judged from mortality [1, 4]: A (100); Insecticidal effect (Test Example 1), judged from mortality [2]: A (100); Insecticidal effect (Test Example 2), judged from mortality [3, 6]: A (100)
Cc1cc(OC(F)(F)F)ccc1NC(=O)c1cccc(I)c1C(=O)NC(C)(C)C [compound 957]	–	–	–	A (100)	A (100)	A (100)	–
Cc1cc(OC(F)(F)C(F)Cl)ccc1NC(=O)c1cccc(I)c1C(=O)NC(C)C (stereo not drawn) [compound 392]	A (100)	A (100)	A (100)	–	–	–	–
CC(C)NC(=O)c1cc(Cl)ccc1C(=O)Nc1ccc(Cl)cc1Cl [compound 173]	D (79-50)	A (100)	D (79-50)	–	–	–	–
Cc1cc(OCC(F)(F)C(F)F)ccc1NC(=O)c1c(Br)cccc1C(=O)NC(C)C [compound 319]	B (99-90)	A (100)	B (99-90)	–	–	–	–
Cc1c(Br)ccc(NC(=O)c2c(Br)cccc2C(=O)NC(C)C)c1C [compound 312]	A (100)	A (100)	A (100)	–	–	–	–
Cc1cc(OCC(F)(F)F)ccc1NC(=O)c1cccc(I)c1C(=O)NC(C)C [compound 379]	A (100)	A (100)	A (100)	–	–	–	–
CC(C)NC(=O)c1c(Cl)cccc1C(=O)Nc1ccc2c(c1)OC(F)(F)C2(F)F [compound 973]	–	–	–	A (100)	A (100)	A (100)	–
CC(C)(C)NC(=O)c1c(I)cccc1C(=O)Nc1ccc(SC(F)(F)F)cc1 [compound 1127]	–	–	–	A (100)	A (100)	A (100)	–
CC(C)(C)NC(=O)c1c(I)cccc1C(=O)Nc1ccc(C(F)(C(F)(F)F)C(F)(F)F)cc1Cl [compound 1723]	–	–	–	–	–	–	Insecticidal effect (Test Example 3), judged from mortality [1, 4]: A (100); Insecticidal effect (Test Example 1), judged from mortality [2]: A (100); Insecticidal effect (Test Example 2), judged from mortality [3, 6]: A (100)
Cc1cc(OC(F)(F)C(F)OC(F)(F)F)ccc1NC(=O)c1cccc(I)c1C(=O)NC(C)C (stereo not drawn) [compound 395]	A (100)	A (100)	A (100)	–	–	–	–
CC(C)NC(=O)c1c(F)cccc1C(=O)Nc1ccc(OC(F)(F)C(F)OC(F)(F)C(F)(F)C(F)(F)F)cc1 (stereo not drawn) [compound 476]	–	–	–	–	–	–	Insecticidal effect on rice leafroller (Test Example 3), judged grade [1]: A (100); Insecticidal effect on diamondback moth (Test Example 1), judged grade [2]: A (100); Insecticidal effect on common cutworm (Test Example 2), judged grade [3]: A (100)
Cc1cc(C(F)(F)C(F)(F)F)ccc1NC(=O)c1ccccc1C(=O)N(C(C)C)C(C)C [compound 1071]	–	–	–	A (100)	A (100)	C (89-80)	–
CCCN(CC)C(=O)c1c(I)cccc1C(=O)Nc1ccc(C(F)(F)C(F)(F)F)cc1C [compound 1573]	–	–	–	–	–	–	Insecticidal effect (Test Example 3), judged from mortality [1, 4]: A (100); Insecticidal effect (Test Example 1), judged from mortality [2]: A (100); Insecticidal effect (Test Example 2), judged from mortality [3, 6]: A (100)
CCc1cc(OC(F)(F)F)ccc1NC(=O)c1cccc(I)c1C(=O)NC(C)(C)C [compound 1211]	–	–	–	A (100)	A (100)	A (100)	–
Cc1cc(OC(F)F)ccc1NC(=O)c1c(Br)cccc1C(=O)NC(C)C [compound 325]	A (100)	A (100)	A (100)	–	–	–	–
CC(C)NC(=O)c1c(I)cccc1C(=O)Nc1ccc(SC(F)(F)C(F)F)cc1 [compound 356]	A (100)	A (100)	A (100)	–	–	–	–
Cc1c(NC(=O)c2cccc([N+](=O)[O-])c2C(=O)NC(C)C)cccc1OC(F)F [compound 695]	–	–	–	–	–	–	Insecticidal effect on rice leafroller (Test Example 3), judged grade [1]: A (100); Insecticidal effect on diamondback moth (Test Example 1), judged grade [2]: A (100); Insecticidal effect on common cutworm (Test Example 2), judged grade [3]: A (100)
Cc1cc(OC(F)(F)C(F)(Br)C(F)(F)F)ccc1NC(=O)c1cccc(I)c1C(=O)NC(C)C (stereo not drawn) [compound 394]	A (100)	A (100)	A (100)	–	–	–	–
Cc1cc(OCC(F)(F)C(F)F)ccc1NC(=O)c1cccc(Br)c1C(=O)NC(C)C [compound 283]	A (100)	A (100)	A (100)	–	–	–	–
CC(C)NC(=O)c1c(I)cccc1C(=O)Nc1ccc2c(c1)OC(F)(F)O2 [compound 1102]	–	–	–	A (100)	A (100)	A (100)	–
CCN(CC)C(=O)c1c(C(=O)Nc2ccc(C(F)(C(F)(F)F)C(F)(F)F)cc2C)ccc(F)c1Cl [compound 1264]	–	–	–	A (100)	A (100)	A (100)	–
CC(C)NC(=O)c1c(I)cccc1C(=O)Nc1ccc([S+]([O-])C(F)(F)Br)cc1 (stereo not drawn) [compound 1113]	–	–	–	A (100)	A (100)	A (100)	–
C=CC(C)(C)NC(=O)c1c(Cl)cccc1C(=O)Nc1ccc(C(F)(F)C(F)(F)F)cc1C [compound 1569]	–	–	–	–	–	–	Insecticidal effect (Test Example 3), judged from mortality [1, 4]: A (100); Insecticidal effect (Test Example 1), judged from mortality [2]: A (100); Insecticidal effect (Test Example 2), judged from mortality [3, 6]: A (100)
CC(C)NC(=O)c1c(Cl)cccc1C(=O)Nc1cccc([S+]([O-])C(F)(F)F)c1 (stereo not drawn) [compound 100]	A (100)	A (100)	A (100)	–	–	–	–
CC(C)NC(=O)c1c(I)cccc1C(=O)Nc1ccc(S(=O)(=O)C(F)(F)F)cc1 [compound 1079]	–	–	–	A (100)	A (100)	A (100)	–
Cc1cc(C(F)(F)C(F)(F)F)ccc1NC(=O)c1cccc(Cl)c1C(=O)NC(C)c1ccccc1Cl (stereo not drawn) [compound 1362]	–	–	–	A (100)	A (100)	A (100)	–
Cc1cc(Br)ccc1NC(=O)c1cccc(I)c1C(=O)NC(C)C [compound 366]	A (100)	A (100)	A (100)	–	–	–	–
